Experimental data reported in US20050032863A1, “Method of treating or preventing central nervous system disorders with compounds having selectivity for the alpha 3 subunit of the benzodiazepine receptor” (priority 2003, published 2005).
“And” between values parts separate entries of the source, which are not always exact repeats. Identical values can stand only once. “Also recorded” adds a separate entry of the source.

Columns and labels:
[1] = tested on: female Wistar rats, MK-801-induced stereotypies, hyperactivity and ataxia; assay: MK-801-induced behaviour, rat model of psychosis (Example 1); type: in vivo; conditions: MK-801 0.2 mg/kg i.p.
Description: The behaviour induced by the NMDA antagonist MK-801 is generally accepted as a rat model of psychosis. MK-801 induces stereotypies, hyperactivity and ataxia in rats after intraperitoneal administration.
Locomotor activity of the rats is recorded by the MotiTest Apparatus (TSE, Bad Homburg, Germany). The test area consisted of a squared arena ([…] with protective plexiglass walls (20 cm of height) where rats could freely move. Horizontal movements were recorded by 32 infrared photocells arranged along the bottom of each wall of the arena. Vertical movements (rearings) were recorded by a horizontal row of 32 infrared photocells 12 cm above the floor. The following parameters are measured by the computer program “ActiMot” (TSE, Bad Homburg, Germany): • active time [s] and total distance travelled [m]
Stereotypies, divided into stereotyped sniffing and other stereotypies, and ataxia are scored by the experimenter every five minutes for one hour (12 intervals) according to the method described by Andiné et al. (1999). The scores of the 12 intervals are added for each parameter.
The day of experiment the female rats are placed in the laboratory and receive the test compound, the reference substance or vehicle at the appropriate time prior to test. MK-801 0.2 mg/kg is intraperitoneally administered 10 minutes prior to test.
At the beginning of the test the rats are placed in the centre of the squared arena of the MotiTest apparatus. Behaviour of the rats is recorded for one hour. After each run animals are removed and the boxes thoroughly cleaned and dried.

[2] = biological target: T1, recombinant rat α5β2γ2 GABAA receptors (Rattus norvegicus, UniProt P19969); assay: Whole-cell patch-clamp, modulation of GABA (EC20)-induced currents in transfected HEK 293 cells, α5β2γ2; type: cell-based
T1 construct: expressed in transfected cells; host or cells: HEK 293
T1 sequence (P19969 32-464 limits assumed): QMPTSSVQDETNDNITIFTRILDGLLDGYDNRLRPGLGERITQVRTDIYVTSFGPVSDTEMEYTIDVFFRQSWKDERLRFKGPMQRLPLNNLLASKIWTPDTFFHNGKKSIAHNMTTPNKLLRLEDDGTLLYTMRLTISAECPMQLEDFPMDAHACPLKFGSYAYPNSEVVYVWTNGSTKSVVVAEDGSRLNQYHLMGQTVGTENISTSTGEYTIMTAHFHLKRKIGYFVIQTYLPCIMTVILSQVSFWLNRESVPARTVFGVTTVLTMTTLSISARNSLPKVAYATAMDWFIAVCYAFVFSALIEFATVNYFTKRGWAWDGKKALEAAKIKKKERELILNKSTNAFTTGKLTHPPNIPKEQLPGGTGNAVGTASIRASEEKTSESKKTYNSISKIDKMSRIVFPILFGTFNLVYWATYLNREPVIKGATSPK
Description: (§1) For electrophysiological recording HEK-293 cells were passaged and replated on 12-mm glass coverslips located in 9.6-cm plastic dishes filled with 10 ml of Minimum Essential Medium (MEM, Gibco) supplemented with 158 mg/l sodium bicarbonate, 2 mM glutamine (Gibco), 100 U/ml penicillin-streptomycin (Gibco), and 10% foetal calf serum (Gibco). Cultures were maintained at 37° C. in a humidified […]/5% CO2 atmosphere for 2-3 days.
(§2) Transfection with recombinant rat GABAA receptors was carried out as described in detail (Korpi and Lüddens, 1993, Lüddens and Korpi, 1995b). Briefly, HEK 293 cells were transfected in triple combinations using the phosphate precipitation method with rat GABAA receptor cDNAs in eukaryotic expression vectors (Pritchett, 1990) for the α, β and γ subunits. For optimal receptor expression, final concentrations (μg vector DNA per 9.6 cm tissue culture plate) were: α1, 2; α2 4.8; α3, 1.2; α4, 10; α5, 0.8; β2, 0.4; and γ2S, 0.3. The γ2S variant is abbreviated γ2 in the remainder of the text. To identify transfected cells all subunit combinations were co-transfected with 1 μg per plate of pNI-EGFP.
(§3) Two days after transfection single coverslips containing HEK 293 cells were placed in a recording chamber mounted on the movable stage of a fluorescence microscope (Olympus IX70) and perfused with a defined saline solution containing (in mM): 130 NaCl, 5.4 KCl, 2 CaCl2, 2 MgSO4, 10 glucose, 5 sucrose, and 10 HEPES (free acid), pH adjusted to 7.35 with about 35 mM NaOH. Transfected cells were identified by their green fluorescence due to the expression of the pNI-EGFP vector and ligand-mediated membrane currents of these cells were studied in the whole-cell configuration of the patch-clamp technique (Hamil et al., 1981). Patch-clamp pipettes were pulled from hard borosilicate capillary glass (0.5 mm ID, 1.5 mm OD, Vitrex, Science Products GmbH, Hofheim, Germany) using a horizontal puller (Sutter Instruments, CA, Model P-97) in a multi-stage process.
(§4) Seal resistances >1 GΩ were routinely obtained by applying gentle suction to the pipettes. Membrane rupture was monitored electrically as an increase in capacity. Pipette capacitance, membrane capacitance, and series resistance were electronically compensated to achieve minimal capacitative transients. A series resistance compensation of >60% was regularly used.
(§5) In all cells recorded the presence of the γ2 subunit in the heteropentamere was monitored by the application of 1 μM zolpidem plus the EC20 of GABA before testing the experimental drugs.
(§6) Responses of the cells were recorded by a patch-clamp amplifier (EPC-8, HEKA-Electronic, Lambrecht, Germany) in conjunction with a standard personal computer and the pClamp 8.1 software package (Axon Instruments, Foster City, Calif.). The standard holding-potential for the cells was −40 mV. Whole cell currents were low-pass filtered by an eight-pole Bessel filter at 5 or 3 kHz before being digitised by a Digidata 1322A interface (Axon Instruments, Foster City, Calif.) and recorded by the computer at a sampling rate of at least […].
(§7) Efficacy, potency, and GABAA receptor a subunit specificity of the new compound ELB139 was tested with the whole cell configuration of the patch-clamp technique by applying increasing drug concentration together with GABA of the approximate EC20 on green fluorescing cells. BZ binding site specificity of the new compound was tested on the same cells in an identical experimental setting with additionally applying 10 μM Ro15-1788.

[3] = biological target: T2, recombinant rat α3β2γ2 GABAA receptors (Rattus norvegicus, UniProt P20236); assay: Whole-cell patch-clamp, modulation of GABA (EC20)-induced currents in transfected HEK 293 cells, α3β2γ2; type: cell-based
T2 construct: expressed in transfected cells; host or cells: HEK 293
T2 sequence (P20236 29-493): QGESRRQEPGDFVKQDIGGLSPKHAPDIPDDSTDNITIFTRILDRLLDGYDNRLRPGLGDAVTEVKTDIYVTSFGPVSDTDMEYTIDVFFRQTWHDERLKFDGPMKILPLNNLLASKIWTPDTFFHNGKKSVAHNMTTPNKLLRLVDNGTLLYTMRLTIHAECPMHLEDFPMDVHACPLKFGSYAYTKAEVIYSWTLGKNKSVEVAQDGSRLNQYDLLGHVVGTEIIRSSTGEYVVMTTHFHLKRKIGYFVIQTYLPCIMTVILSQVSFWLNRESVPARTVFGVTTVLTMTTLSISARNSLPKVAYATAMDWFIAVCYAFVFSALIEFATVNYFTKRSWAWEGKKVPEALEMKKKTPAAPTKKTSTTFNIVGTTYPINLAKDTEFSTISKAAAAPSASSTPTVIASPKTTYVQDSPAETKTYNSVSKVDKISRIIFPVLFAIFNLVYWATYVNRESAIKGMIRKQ
Description: as §1, §2, §3, §4, §5, §6, §7

[4] = biological target: T3, recombinant rat α2β2γ2 GABAA receptors (Rattus norvegicus, UniProt P23576); assay: Whole-cell patch-clamp, modulation of GABA (EC20)-induced currents in transfected HEK 293 cells, α2β2γ2; type: cell-based; conditions: α2β2γ2
T3 construct: expressed in transfected cells; host or cells: HEK 293
T3 sequence (P23576 29-451): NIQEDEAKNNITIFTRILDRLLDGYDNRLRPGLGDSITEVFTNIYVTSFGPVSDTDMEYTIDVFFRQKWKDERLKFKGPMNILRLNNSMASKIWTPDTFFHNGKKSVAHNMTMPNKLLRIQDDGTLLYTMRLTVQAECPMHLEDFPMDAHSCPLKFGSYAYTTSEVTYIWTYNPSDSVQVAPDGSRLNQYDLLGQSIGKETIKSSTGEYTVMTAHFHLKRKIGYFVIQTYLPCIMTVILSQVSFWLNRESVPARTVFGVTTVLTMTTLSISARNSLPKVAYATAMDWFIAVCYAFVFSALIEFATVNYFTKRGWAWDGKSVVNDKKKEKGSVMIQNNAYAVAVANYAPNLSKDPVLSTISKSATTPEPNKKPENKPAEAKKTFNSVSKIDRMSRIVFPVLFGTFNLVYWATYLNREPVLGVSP
Description: as §1, §2, §3, §4, §5, §6, §7

[5] = 30 mg/kg p.o. 1 h prior to test
[6] = applied with approximate GABA EC20, read-out: EC50 (ELB139)

O=C1N=C(N2CCCCC2)CN1c1ccc(Cl)cc1 [ELB139, 1-(4-chlorophenyl)-4-piperidinoimidazolin-2-one] was tested, and the MK-801-induced ataxia [1, 5] was “significantly reversed”, the MK-801-induced other stereotypies [1, 5] was “significantly reversed” and the MK-801-induced stereotyped sniffing [1, 5] was “significantly reversed”. For the same compound, the MK-801-stimulated activity [1, 5] was “did not reduce”, the “total distance travelled increased by MK-801” value [1, 5] was “distinctly reduced” and the “all parameters induced by MK-801” value ([1]; 60 mg/kg p.o. 1 h prior to test) was “significantly reduced all parameters”. For the same compound, the EC50 [2, 6] was 3.6 µM, the “effect of 10 μM Ro15-1788 on the current enhancement by the compound” value ([2]; co-applied 10 μM Ro15-1788 (flumazenil)) was “completely abolished” and the “maximal positive modulation of GABA-induced current” value ([2]; maximum at 30 μM (ELB139), at 1 μM (diazepam)) was 1.4±0.06 fold and 1.4 fold. The “Potentiation* (ELB139)” value ([2]; with GABA EC20, graphically determined) was 1.4 ± 0.06, the “concentrations at which positive current modulation was observable” value ([3]; α3-containing receptors) was “above 30 nM” and the “highest efficacy / maximal stimulation of GABA-induced current” value ([3]; α3-containing receptors, ELB139 at concentrations above 0.3 μM, diazepam at 1 μM) was 1.3±0.07 fold and 1.3 fold. For the same compound, the “effect of 10 μM Ro15-1788 on the current enhancement by the compound” value ([3]; α3β2γ2, co-applied 10 μM Ro15-1788 (flumazenil)) was “completely abolished”, the “Potentiation* (ELB139)” value ([3]; α3β2γ2, with GABA EC20, graphically determined) was 1.3 ± 0.07 and the EC50 ([3]; α3β2γ2, with GABA EC20, value marked * = graphically determined, read-out: EC50 (ELB139)) was 0.06 µM. For the same compound, the “modulation of GABA-induced currents (in words)” value ([4]; ELB139 0.01-30 μM) was “failed to evoke agonistic or inverse agonistic modulation; also recorded: no agonistic effect; also recorded: not at all active” and the EC50 [4, 6] was > 30 µM.
